Data from patent US20240217990A1 (Gilead Sciences, Inc., priority 2021, published 2024).

Tests used:
TLR7 = biological target: T1, TLR7 (Homo sapiens, UniProt Q9NYK1); experiment: TLR7 human PBMC cell-based assay (antagonist, GS-986 stimulated cytokine release); conditions: human PBMCs; TLR7 agonist GS-986 400 nM, 6 hours; cytokines (IL-6 and IFNα) in supernatant; read-out: TLR-7 EC50
T1 construct: Human peripheral blood mononuclear cells (PBMCs) consist of lymphocytes, monocytes and dendritic cells that express TLR7, TLR8 and TLR9; endogenous in cells; host or cells: cryopreserved human PBMCs from healthy donors
T1 sequence (Q9NYK1 27-1049): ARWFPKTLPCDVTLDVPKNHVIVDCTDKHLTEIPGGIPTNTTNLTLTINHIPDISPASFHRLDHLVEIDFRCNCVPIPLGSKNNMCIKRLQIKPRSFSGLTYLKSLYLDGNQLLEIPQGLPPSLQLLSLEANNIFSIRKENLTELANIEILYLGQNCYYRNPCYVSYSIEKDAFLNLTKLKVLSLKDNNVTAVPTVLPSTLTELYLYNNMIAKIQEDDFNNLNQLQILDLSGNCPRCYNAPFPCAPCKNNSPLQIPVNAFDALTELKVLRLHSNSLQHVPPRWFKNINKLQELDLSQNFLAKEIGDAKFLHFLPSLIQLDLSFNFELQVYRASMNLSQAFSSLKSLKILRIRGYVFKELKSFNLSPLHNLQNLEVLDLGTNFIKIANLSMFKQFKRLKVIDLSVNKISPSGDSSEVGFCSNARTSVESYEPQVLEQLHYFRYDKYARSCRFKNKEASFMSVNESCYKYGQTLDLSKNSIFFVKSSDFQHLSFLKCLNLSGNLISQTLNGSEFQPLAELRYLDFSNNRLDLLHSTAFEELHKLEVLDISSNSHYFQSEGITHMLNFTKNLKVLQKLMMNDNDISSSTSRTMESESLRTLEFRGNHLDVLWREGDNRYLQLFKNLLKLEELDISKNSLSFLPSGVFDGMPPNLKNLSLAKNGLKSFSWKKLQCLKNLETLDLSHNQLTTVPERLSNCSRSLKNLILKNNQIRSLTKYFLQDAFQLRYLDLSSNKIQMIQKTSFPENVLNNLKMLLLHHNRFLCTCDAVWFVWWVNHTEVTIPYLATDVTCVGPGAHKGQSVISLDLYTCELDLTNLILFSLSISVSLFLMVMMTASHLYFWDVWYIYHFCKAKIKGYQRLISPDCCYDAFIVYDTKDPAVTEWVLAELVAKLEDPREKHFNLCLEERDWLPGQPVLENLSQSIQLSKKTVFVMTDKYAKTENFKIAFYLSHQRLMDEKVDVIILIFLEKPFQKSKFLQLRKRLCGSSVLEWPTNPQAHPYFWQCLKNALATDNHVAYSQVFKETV
Procedure, shortened: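 EC50 derived by sigmoidal fitting of IL-6 and IFNα levels, quantified by electrochemiluminescence in supernatants of human PBMCs given 400 nM GS-986 for 6 h. Cells (100,000/well in RPMI-1640, 10% FBS) had received test antagonist 1 h beforehand, 10 doses in quadruplicate, at 37 °C.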

TLR8 = biological target: T2, TLR8 (Homo sapiens, UniProt Q9NR97); experiment: TLR8 human PBMC cell-based assay (antagonist, Compound A stimulated cytokine release); conditions: human PBMCs; TLR8 agonist Compound A 800 nM, 6 hours; cytokines (TNFa and IL 12p40) in supernatant; read-out: TLR-8 EC50
T2 construct: Human peripheral blood mononuclear cells (PBMCs) consist of lymphocytes, monocytes and dendritic cells that express TLR7, TLR8 and TLR9; endogenous in cells; host or cells: cryopreserved human PBMCs from healthy donors
T2 sequence (Q9NR97 27-1041): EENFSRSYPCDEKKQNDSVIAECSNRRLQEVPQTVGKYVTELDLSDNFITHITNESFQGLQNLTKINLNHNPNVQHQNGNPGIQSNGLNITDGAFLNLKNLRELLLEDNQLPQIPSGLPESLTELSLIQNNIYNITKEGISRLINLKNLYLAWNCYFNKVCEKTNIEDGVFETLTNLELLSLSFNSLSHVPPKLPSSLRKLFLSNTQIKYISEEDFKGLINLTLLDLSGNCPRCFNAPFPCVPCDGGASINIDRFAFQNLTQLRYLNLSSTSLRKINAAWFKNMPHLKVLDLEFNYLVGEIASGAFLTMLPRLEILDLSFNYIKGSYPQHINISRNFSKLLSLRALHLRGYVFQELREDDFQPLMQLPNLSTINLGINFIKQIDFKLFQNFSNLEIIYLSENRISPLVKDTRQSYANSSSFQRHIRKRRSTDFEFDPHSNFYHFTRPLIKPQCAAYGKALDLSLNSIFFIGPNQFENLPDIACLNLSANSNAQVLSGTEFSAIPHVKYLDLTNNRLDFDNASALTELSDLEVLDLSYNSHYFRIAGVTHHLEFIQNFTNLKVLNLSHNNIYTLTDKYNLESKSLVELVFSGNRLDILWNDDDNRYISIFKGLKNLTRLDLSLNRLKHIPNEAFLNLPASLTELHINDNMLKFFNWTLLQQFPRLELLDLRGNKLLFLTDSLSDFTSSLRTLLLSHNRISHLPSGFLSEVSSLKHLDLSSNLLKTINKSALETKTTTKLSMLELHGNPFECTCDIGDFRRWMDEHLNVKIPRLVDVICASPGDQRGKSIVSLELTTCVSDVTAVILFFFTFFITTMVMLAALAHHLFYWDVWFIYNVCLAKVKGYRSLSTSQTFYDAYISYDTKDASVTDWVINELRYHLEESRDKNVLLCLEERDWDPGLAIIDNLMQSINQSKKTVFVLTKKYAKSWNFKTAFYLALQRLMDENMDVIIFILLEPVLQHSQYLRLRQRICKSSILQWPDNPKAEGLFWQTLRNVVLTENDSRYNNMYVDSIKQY
Procedure, shortened: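 Cryopreserved donor PBMCs (100,000/well, RPMI + 10% FBS) were preincubated 1 h with antagonist (10-point dose response, quadruplicate), then stimulated with Compound A (800 nM final) for 6 h at 37 °C. TNFa and IL-12p40 in supernatants were measured by electrochemiluminescence; sigmoidal fits gave EC50.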

SMILES | EC50 (TLR7) | EC50 (TLR8)
Cc1cc(-c2[nH]c3cc(C4CCN(CC5(C)COC5)CC4)sc3c2C(C)C)cn2ncnc12 [Example 186, 6-isopropyl-5-(8-methyl-[1,2,4]triazolo[1,5-a]pyridin-6-yl)-2-(1-((3-methyloxetan-3-yl)methyl)piperidin-4-yl)-4H-thieno[3,2-b]pyrrole] | 2.1 nM | 3.1 nM
Cc1cc(-c2[nH]c3cc(C4CCN(CCO)CC4)sc3c2C(C)C)cn2ncnc12 [Example 187, 2-(4-(6-isopropyl-5-(8-methyl-[1,2,4]triazolo[1,5-a]pyridin-6-yl)-4H-thieno[3,2-b]pyrrol-2-yl)piperidin-1-yl)ethan-1-ol] | 1.6 nM | 0.6 nM
Cc1cc(-c2[nH]c3cc(-c4ccc5c(c4)CN(CCO)CC5)sc3c2C(C)C)cn2ncnc12 [Example 188] | 1.3 nM | 0.3 nM
Cc1cc(-c2[nH]c3cc(-c4cnn(C5CCN(CCO)CC5)c4)sc3c2C(C)C)cn2ncnc12 [Example 189] | 1.3 nM | 0.7 nM
Cc1cc(-c2[nH]c3cc(-c4cnc5c(c4)CN(CCO)CC5)sc3c2C(C)C)cn2ncnc12 [Example 190] | 2.4 nM | 0.5 nM
Cc1cc(-c2[nH]c3cc(C4CCC5(CC4)CN(CCO)C5)sc3c2C(C)C)cn2ncnc12 [Example 191] | 0.2 nM | 1 nM
Cc1c(-c2[nH]c3cc(C(=O)N(C)C4CCN(CCO)CC4)sc3c2C(C)C)cn2ncnc2c1C [Example 192] | 1.2 nM | 0.5 nM
Cc1cc(CN2CCC(c3cc4[nH]c(-c5cc(C)c6ncnn6c5)c(C(C)C)c4s3)CC2)no1 [Example 193] | 18.2 nM | 12.3 nM
Cc1cc(-c2[nH]c3cc(C4CCN(Cc5ccn(C)n5)CC4)sc3c2C(C)C)cn2ncnc12 [Example 194] | 4.5 nM | 0.6 nM
Cc1cc(-c2[nH]c3cc(C4CCN(C5CCC5)CC4)sc3c2C(C)C)cn2ncnc12 [Example 195] | 2.5 nM | 0.3 nM
Cc1cc(-c2[nH]c3cc(C4CCN(C(=O)CN5CCCC5)CC4)sc3c2C(C)C)cn2ncnc12 [Example 196, 1-(4-(6-isopropyl-5-(8-methyl-[1,2,4]triazolo[1,5-a]pyridin-6-yl)-4H-thieno[3,2-b]pyrrol-2-yl)piperidin-1-yl)-2-(pyrrolidin-1-yl)ethan-1-one] | 1.3 nM | 4.2 nM
Cc1cc(-c2[nH]c3cc(C4CCN(C(=O)C5(N)CCC5)CC4)sc3c2C(C)C)cn2ncnc12 [Example 197] | 33.1 nM | 79.7 nM
Cc1cc(-c2[nH]c3cc(C4CCN(C(=O)[C@H]5CCCN5C)CC4)sc3c2C(C)C)cn2ncnc12 [Example 199] | 3.9 nM | 5.3 nM
Cc1cc(-c2[nH]c3cc(C4CCN(C(=O)[C@@H]5CCCN5C)CC4)sc3c2C(C)C)cn2ncnc12 [Example 200] | 3.8 nM | 10 nM
Cc1cc(-c2[nH]c3cc(C4CCN(C(=O)C5CCN(C)C5)CC4)sc3c2C(C)C)cn2ncnc12 (centres unmarked) [Example 201] | 0.7 nM | 8.6 nM
Cc1cc(-c2[nH]c3cc(C4CCN(C(=O)C5CNC5)CC4)sc3c2C(C)C)cn2ncnc12 [Example 202] | 1.5 nM | 23.8 nM
Cc1cc(-c2[nH]c3cc(C4CCN(C(=O)C5CCCN(C)C5)CC4)sc3c2C(C)C)cn2ncnc12 (centres unmarked) [Example 203] | 0.4 nM | 5.6 nM

SMILES | EC50 (TLR7) | EC50 (TLR8)
Cc1cc(-c2[nH]c3cc(C4CCN(C(=O)C5CN6CCC5CC6)CC4)sc3c2C(C)C)cn2ncnc12 (centres unmarked) [Example 204] | 0.5 nM | 9.9 nM
Cc1cc(-c2[nH]c3cc(C4CCN(C(=O)[C@H]5CCN(C)C5)CC4)sc3c2C(C)C)cn2ncnc12 [Example 205] | 0.5 nM | 9 nM
Cc1cc(-c2[nH]c3cc(C4CCC5(CC4)CN(C(=O)[C@@H]4CCCN4C)C5)sc3c2C(C)C)cn2ncnc12 [Example 206] | 0.3 nM | 15.4 nM
Cc1cc(-c2[nH]c3cc(C4CCC5(CC4)CN(C(=O)[C@H]4CCCN4C)C5)sc3c2C(C)C)cn2ncnc12 [Example 207] | 0.7 nM | 19.9 nM
Cc1cc(-c2[nH]c3cc(C4CCC5(CC4)CN(C(=O)CN4CCCC4)C5)sc3c2C(C)C)cn2ncnc12 [Example 208] | 0.3 nM | 12.3 nM
Cc1cc(-c2[nH]c3cc(-c4ccc5c(c4)CNC5)sc3c2C(C)C)cn2ncnc12 [Example 209, 2-(isoindolin-5-yl)-6-isopropyl-5-(8-methyl-[1,2,4]triazolo[1,5-a]pyridin-6-yl)-4H-thieno[3,2-b]pyrrole] | 15.4 nM | 1.7 nM
Cc1cc(-c2[nH]c3cc(-c4ccc(N5CCNCC5)nc4)sc3c2C(C)C)cn2ncnc12 [Example 210] | 0.5 nM | 2.3 nM
Cc1cc(-c2[nH]c3cc(-c4ccc5c(c4)CNCC5)sc3c2C(C)C)cn2ncnc12 [Example 211] | 1.9 nM | 0.5 nM
Cc1cc(-c2[nH]c3cc(-c4ccc5nc(C6N[C@@H]7CC[C@H]6C7)[nH]c5c4)sc3c2C(C)C)cn2ncnc12 (some centres unmarked) [Example 212] | 0.2 nM | 1.6 nM
Cc1cc(-c2[nH]c3cc(-c4cnc5c(c4)CNCC5)sc3c2C(C)C)cn2ncnc12 [Example 213] | 0.8 nM | 0.2 nM
Cc1cc(-c2[nH]c3cc(-c4ccc(N5CCNCC5)cc4)sc3c2C(C)C)cn2ncnc12 [Example 214] | 0.6 nM | 2.9 nM
Cc1cc(-c2[nH]c3cc(-c4cnn(C5CCNCC5)c4)sc3c2C(C)C)cn2ncnc12 [Example 215] | 0.3 nM | 2.3 nM
Cc1cc(N2CCNCC2)ncc1-c1cc2[nH]c(-c3cc(C)c4ncnn4c3)c(C(C)C)c2s1 [Example 216] | 0.4 nM | 3.1 nM
Cc1nc(N2CCNCC2)ccc1-c1cc2[nH]c(-c3cc(C)c4ncnn4c3)c(C(C)C)c2s1 [Example 217] | 0.2 nM | 6 nM
Cc1cc(-c2[nH]c3cc(-c4cnc5c(c4)CCNC5)sc3c2C(C)C)cn2ncnc12 [Example 218] | 3.3 nM | 1 nM
Cc1cc(-c2[nH]c3cc(-c4cnn5c4CNCC5)sc3c2C(C)C)cn2ncnc12 [Example 219] | 34.9 nM | 4.6 nM
Cc1nn(C2CCNCC2)cc1-c1cc2[nH]c(-c3cc(C)c4ncnn4c3)c(C(C)C)c2s1 [Example 220] | 1.2 nM | 11.2 nM
